Values quoted from earlier work in patent publication US20240226080A1, “Pharmaceutical Mixture Comprising Amorphous Pitolisant” (Alfred E. Tiefenbacher GmbH & Co. KG, priority 2022, published 2024).
Where a name gives a salt, the structure may show the parent alone.

How the values were obtained:
[1] = for Solubility (% w/v) Water room T: room temperature
[2] = 23° C.; listed as oxalate salt

| SMILES | Solubility (% w/v) pH 4.5 [1] | Solubility (% w/v) pH 7.4 [1] | Solubility (% w/v) Water room T [1] | aqueous solubility [2] [mg/mL] |
| --- | --- | --- | --- | --- |
| Clc1ccc(CCCOCCCN2CCCCC2)cc1 [Hydrogen oxalate, 1-[3-[3-(4-chlorophenyl)propoxy]propyl]-piperidine] | 1-3 % w/v | 3-10 % w/v | 1-3 % w/v | 25 |
| Clc1ccc(CCCOCCCN2CCCCC2)cc1 [Monohydrochloride, 1-[3-[3-(4-chlorophenyl)propoxy]propyl]-piperidine] | >100 % w/v | >100 % w/v | >100 % w/v |  |
